Experiments:
human Nav1.5 = human Nav1.5 (Homo sapiens (Human), UniProt Q14524); test: Human Nav1.5 inhibitory activity evaluation (automated patch clamp QPatch16X, HEK293 cells stably expressing human Nav1.5); assay type: cell-based
In short: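 IC50 derived from concentration-response of inward current at the 20th of 20 action-potential-mimicking pulses (holding −80 mV, leak corrected with −100 mV step). HEK293 cells stably expressing human Nav1.5, room temperature, extracellular pH 7.4, intracellular CsF-based pH 7.3, 0.1% DMSO.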

human Nav1.7 = human Nav1.7 (Homo sapiens (Human), UniProt Q15858); test: Human Nav1.7 inhibitory activity evaluation (automated patch clamp QPatch16X, HEK293A cells stably expressing human Nav1.7 and human Navβ1); assay type: cell-based
In short: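 IC50 calculated from the concentration-response of inward current evoked by the second −10 mV, 50 ms depolarisation, which follows a 15 s conditioning step at roughly 30-40% inactivation and a 100 ms −120 mV interval. Cells: HEK293A expressing human Nav1.7/Navβ1, automated patch clamp, room temperature, 0.1% DMSO final.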

[1] = human Nav1.5, automated patch clamp
[2] = human Nav1.7, automated patch clamp
[3] = HEK293 cells stably expressing human Nav1.5, automated patch clamp QPatch16X
[4] = HEK293A cells stably expressing human Nav1.7 and human Navβ1, automated patch clamp QPatch16X

Chain of human Nav1.7 (Q15858 whole entry): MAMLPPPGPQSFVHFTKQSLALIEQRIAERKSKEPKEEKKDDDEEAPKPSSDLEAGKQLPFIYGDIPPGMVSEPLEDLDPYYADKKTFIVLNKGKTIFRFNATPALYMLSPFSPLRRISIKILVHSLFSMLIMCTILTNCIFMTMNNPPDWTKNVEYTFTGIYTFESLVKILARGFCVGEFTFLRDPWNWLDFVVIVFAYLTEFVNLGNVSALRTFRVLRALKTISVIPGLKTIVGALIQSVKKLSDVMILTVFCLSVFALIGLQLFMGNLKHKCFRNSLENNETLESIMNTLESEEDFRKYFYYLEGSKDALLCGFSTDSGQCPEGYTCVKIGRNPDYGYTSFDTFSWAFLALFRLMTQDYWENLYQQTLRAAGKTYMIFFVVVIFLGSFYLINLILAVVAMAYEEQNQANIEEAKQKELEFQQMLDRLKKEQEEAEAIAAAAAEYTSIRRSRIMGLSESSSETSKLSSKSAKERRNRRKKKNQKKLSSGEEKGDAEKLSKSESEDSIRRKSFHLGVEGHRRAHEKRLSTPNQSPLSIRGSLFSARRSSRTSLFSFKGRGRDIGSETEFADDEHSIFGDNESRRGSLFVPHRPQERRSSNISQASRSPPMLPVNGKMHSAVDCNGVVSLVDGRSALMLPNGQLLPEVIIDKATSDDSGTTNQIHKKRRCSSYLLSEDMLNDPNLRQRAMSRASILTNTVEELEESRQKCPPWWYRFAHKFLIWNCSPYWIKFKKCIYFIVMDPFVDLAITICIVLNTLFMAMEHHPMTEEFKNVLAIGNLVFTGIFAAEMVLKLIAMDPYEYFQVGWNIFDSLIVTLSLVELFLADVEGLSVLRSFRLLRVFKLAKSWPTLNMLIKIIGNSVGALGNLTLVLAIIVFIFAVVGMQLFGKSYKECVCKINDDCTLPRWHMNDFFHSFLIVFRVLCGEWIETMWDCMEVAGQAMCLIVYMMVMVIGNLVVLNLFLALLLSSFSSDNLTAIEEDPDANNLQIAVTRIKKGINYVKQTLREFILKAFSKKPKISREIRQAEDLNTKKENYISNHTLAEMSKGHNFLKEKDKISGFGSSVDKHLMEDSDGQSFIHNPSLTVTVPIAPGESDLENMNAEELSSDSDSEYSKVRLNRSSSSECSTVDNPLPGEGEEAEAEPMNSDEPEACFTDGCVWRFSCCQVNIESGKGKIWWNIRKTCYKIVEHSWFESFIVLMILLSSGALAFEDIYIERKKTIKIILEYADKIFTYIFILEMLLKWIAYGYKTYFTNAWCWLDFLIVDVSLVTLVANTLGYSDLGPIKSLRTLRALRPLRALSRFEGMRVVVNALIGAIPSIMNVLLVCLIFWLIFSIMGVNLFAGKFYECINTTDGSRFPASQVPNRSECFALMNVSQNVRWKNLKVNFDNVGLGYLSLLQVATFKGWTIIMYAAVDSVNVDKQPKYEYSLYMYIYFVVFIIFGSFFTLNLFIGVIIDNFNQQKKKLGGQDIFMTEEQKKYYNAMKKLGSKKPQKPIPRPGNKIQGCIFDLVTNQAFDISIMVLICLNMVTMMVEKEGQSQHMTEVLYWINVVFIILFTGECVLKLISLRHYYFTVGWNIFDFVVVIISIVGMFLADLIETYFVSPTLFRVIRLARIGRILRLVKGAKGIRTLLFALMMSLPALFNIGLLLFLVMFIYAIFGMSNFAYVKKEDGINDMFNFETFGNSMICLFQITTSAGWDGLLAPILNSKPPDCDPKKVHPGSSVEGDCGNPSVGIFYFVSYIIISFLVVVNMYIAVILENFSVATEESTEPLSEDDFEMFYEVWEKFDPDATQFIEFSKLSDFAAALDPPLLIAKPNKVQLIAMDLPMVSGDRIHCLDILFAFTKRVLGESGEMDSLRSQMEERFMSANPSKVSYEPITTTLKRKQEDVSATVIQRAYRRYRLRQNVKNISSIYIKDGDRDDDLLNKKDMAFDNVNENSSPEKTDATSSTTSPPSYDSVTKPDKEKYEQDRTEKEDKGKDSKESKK
Chain of human Nav1.7 (Q07699 19-218 partner): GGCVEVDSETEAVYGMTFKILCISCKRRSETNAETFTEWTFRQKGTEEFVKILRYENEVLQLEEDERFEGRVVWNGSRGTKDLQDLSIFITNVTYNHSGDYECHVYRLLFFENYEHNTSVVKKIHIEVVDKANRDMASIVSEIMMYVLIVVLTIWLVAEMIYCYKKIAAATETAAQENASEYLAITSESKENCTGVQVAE
Chain of human Nav1.5 (Q14524 whole entry): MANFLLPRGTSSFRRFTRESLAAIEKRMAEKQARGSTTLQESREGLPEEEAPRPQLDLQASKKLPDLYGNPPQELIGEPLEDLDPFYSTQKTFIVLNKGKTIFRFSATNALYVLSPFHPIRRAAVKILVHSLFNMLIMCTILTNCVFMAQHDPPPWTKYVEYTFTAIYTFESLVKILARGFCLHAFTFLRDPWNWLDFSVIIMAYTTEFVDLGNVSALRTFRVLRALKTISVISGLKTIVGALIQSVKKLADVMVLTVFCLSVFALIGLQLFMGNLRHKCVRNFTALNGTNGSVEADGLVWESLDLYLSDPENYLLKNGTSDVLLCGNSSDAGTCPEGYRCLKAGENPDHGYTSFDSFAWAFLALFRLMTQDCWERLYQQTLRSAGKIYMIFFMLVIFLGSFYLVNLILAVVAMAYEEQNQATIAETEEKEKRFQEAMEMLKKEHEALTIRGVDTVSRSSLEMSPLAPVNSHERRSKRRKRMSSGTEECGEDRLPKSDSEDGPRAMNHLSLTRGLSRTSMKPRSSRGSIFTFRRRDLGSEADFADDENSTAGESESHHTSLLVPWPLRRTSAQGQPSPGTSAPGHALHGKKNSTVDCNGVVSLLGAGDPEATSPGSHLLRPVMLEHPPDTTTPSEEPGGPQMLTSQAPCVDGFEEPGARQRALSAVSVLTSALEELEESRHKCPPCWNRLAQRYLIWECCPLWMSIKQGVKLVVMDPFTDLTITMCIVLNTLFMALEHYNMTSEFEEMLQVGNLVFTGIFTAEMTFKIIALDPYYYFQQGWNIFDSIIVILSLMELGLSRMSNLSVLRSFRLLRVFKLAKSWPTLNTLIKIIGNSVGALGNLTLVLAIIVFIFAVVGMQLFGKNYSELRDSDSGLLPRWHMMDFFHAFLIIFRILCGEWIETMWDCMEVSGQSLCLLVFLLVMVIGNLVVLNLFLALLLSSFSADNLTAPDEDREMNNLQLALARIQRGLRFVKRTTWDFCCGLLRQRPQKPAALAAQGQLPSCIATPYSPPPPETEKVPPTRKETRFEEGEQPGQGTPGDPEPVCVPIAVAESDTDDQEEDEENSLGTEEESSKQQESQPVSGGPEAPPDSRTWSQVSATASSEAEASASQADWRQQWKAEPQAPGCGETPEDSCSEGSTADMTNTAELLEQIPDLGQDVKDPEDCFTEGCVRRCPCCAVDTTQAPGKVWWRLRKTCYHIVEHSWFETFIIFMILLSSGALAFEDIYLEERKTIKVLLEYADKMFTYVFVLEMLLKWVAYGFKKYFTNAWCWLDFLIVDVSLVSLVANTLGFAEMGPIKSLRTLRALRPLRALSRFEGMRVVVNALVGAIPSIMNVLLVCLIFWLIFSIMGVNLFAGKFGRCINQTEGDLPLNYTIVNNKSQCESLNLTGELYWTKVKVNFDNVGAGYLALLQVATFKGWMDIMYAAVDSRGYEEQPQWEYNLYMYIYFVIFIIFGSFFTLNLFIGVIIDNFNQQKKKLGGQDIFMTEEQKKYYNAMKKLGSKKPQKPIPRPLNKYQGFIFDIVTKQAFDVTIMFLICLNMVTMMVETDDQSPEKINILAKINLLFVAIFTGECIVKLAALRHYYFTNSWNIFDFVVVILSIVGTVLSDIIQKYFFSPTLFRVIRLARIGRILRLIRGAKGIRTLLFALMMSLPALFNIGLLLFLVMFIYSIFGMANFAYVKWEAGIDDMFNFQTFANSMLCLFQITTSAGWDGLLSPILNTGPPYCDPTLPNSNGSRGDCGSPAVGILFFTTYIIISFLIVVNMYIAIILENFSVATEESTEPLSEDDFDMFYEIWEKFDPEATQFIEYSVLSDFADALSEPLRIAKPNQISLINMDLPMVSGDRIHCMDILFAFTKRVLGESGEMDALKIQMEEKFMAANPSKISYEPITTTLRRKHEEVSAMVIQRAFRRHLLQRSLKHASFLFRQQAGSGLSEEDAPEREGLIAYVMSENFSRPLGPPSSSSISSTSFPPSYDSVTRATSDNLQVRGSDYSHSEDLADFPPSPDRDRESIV

| SMILES | IC50 (human Nav1.5; [1]) [nM] | IC50 (human Nav1.7; [2]) [nM] | IC50 (human Nav1.5; [3]) [nM] | IC50 (human Nav1.7; [4]) [nM] |
| --- | --- | --- | --- | --- |
| O=C(N[C@H]1COc2ccc(COCC(F)(F)F)cc2C1)c1cc2n(n1)CCC(COCC(F)(F)F)CO2 (single isomer, unassigned) [602 (isomer A)] | ≥ 3000 | < 1000 |  |  |
| O=C(N[C@H]1COc2ccc(C(F)(F)F)cc2C1O)c1cc2n(n1)CC(CCCOCC(F)(F)F)O2 (single isomer, unassigned) [603 (isomer B)] | ≥ 3000 | < 1000 |  |  |
| N#Cc1ccc2c(c1)C[C@@H](NC(=O)c1cc3n(n1)CC(CCCOCC(F)F)O3)CO2 (single isomer, unassigned) [604 (isomer A)] | 1000 to 3000 | < 1000 |  |  |
| O=C(N[C@H]1COc2ccc(C(F)(F)F)cc2C1O)c1cc2n(n1)CC(CCCOCC(F)F)O2 (single isomer, unassigned) [608 (isomer A)] | ≥ 3000 | < 1000 |  |  |
| O=C(N[C@H]1COc2ccc(C(F)(F)F)cc2C1O)c1cc2n(n1)CC(CCCOCC(F)F)O2 (single isomer, unassigned) [608 (isomer B)] | ≥ 3000 | < 1000 |  |  |
| O=C(N[C@H]1COc2ccc(C(F)(F)F)cc2C1O)c1cc2n(n1)CC(CCCOCC(F)F)O2 (single isomer, unassigned) [610 (isomer A)] | ≥ 3000 | < 1000 |  |  |
| O=C(N[C@H]1COc2ccc(COCC(F)(F)F)cc2C1)c1cc2n(n1)CCC(C1CCOCC1)O2 (single isomer, unassigned) [615 (isomer A)] | 1000 to 3000 | < 1000 |  |  |
| O=C(N[C@H]1COc2ccc(COCC(F)(F)F)cc2C1)c1cc2n(n1)CCC(C1CCOCC1)O2 (single isomer, unassigned) [615 (isomer B)] | ≥ 3000 | < 1000 |  |  |
| O=C(N[C@H]1COc2ccc(C(F)(F)F)cc2C1O)c1cc2n(n1)CC(CCCOCC(F)(F)F)O2 (single isomer, unassigned) [616 (isomer A)] | 1000 to 3000 | < 1000 |  |  |
| N#Cc1ccc2c(c1)C(F)[C@@H](NC(=O)c1cc3n(n1)CCC(COCC1CC1)O3)CO2 (single isomer, unassigned) [617 (isomer A)] | ≥ 3000 | < 1000 |  |  |
| N#Cc1ccc2c(c1)C(F)[C@@H](NC(=O)c1cc3n(n1)CCC(COCC1CC1)O3)CO2 (single isomer, unassigned) [617 (isomer C)] | ≥ 3000 | < 10000 |  |  |
| O=C(N[C@H]1COc2ccc(COCC(F)(F)F)cc2C1)c1cc2n(n1)CC(CC1CCOCC1)O2 (single isomer, unassigned) [622 (isomer A)] | ≥ 3000 | < 1000 |  |  |
| O=C(N[C@H]1COc2ccc(Cl)cc2C1)c1cn2c(n1)CCC(C(F)(F)F)C2 (single isomer, unassigned) [Example 2 (isomer A)] |  |  | 1000 to 3000 | < 1000 |
| O=C(N[C@H]1COc2ccc(Cl)cc2C1)c1cn2c(n1)CCC(C(F)(F)F)C2 (single isomer, unassigned) [Example 2 (isomer B)] |  |  | ≥ 3000 | < 1000 |
| CN(C(=O)c1cn2c(n1)CCC(C(F)(F)F)C2)[C@H]1COc2ccc(Cl)cc2C1 (single isomer, unassigned) [Example 4] |  |  | ≥ 3000 | < 10000 |
| O=C(N[C@H]1COc2ccc(C(F)(F)F)cc2C1O)c1cc2n(n1)CCC(COCC(F)(F)F)CO2 (single isomer, unassigned) [Example 683] | ≥ 3000 | < 10000 |  |  |
| N#Cc1ccc2c(c1)C[C@@H](NC(=O)c1cc3n(n1)CC[C@H](COCC(F)(F)F)CO3)CO2 (single isomer, unassigned; isomer a) [572(isomer A)] | ≥ 3000 | < 10000 |  |  |
| O=C(N[C@H]1COc2ccc(C(F)(F)F)cc2C1O)c1cc2n(n1)CC[C@H](COCC1CC1)O2 (single isomer, unassigned; isomer a) [575(isomer A)] | 1000 to 3000 | < 1000 |  |  |
| O=C(N[C@H]1COc2ccc(C(F)(F)F)cc2C1O)c1cc2n(n1)C[C@H](COCC1CC1)O2 (single isomer, unassigned; isomer a) [576(isomer A)] | ≥ 3000 | < 1000 |  |  |

Reference: patent US12421225B2, “Heteroaromatic amide derivative and medicament containing the same” (KAKEN PHARMACEUTICAL CO., LTD., priority 2018, dated 2025)
